# Experimental data: patent US20240083949A1, “CELL PENETRATING PEPTIDE COMPOSITIONS AND METHODS THEREOF” (The Regents of the University of California, priority 2022, published 2024)
# Entries after “also recorded” stand apart in the source; their conditions may differ. Positions of bridges follow the written chain, without caps; N, C: chain ends. Non-standard residues stand in square brackets, D forms with d. Lys(N3) = [N-]=[N+]=NCCCC[C@H](N)C(=O)O; Pra = C#CC[C@H](N)C(=O)O
# Experiments:
# [1] = test system: U87 cells; experiment: Endocytosis inhibitors treatment, RB-EPP6 uptake by flow cytometry; format: cell-based, human; conditions: 500 nM RB-EPP6, flow cytometry
# Method: (§1) Flow cytometry experiments. To measure the RB signal intensity, a NovoCyte flow cytometer (NovoExpress) was used. Quantification of fluorescence intensity in each condition was performed using Novoxpress software. Fifty thousand cells were analyzed for each condition. A green, fluorescent dye used in DNA staining, YOYO was included in all the flow cytometry experiments, serving as a cell live/dead indicator. For the YOYO only group, the cells were treated with trypsin for 5-10 min. After that, cells were fixed in a 1.5 ml centrifuge tube using 4% paraformaldehyde at room temperature for 15 min. Subsequently, fixed cells were washed with PBS once and was permeabilized using 90% cold MeOH on ice for 15 min. Then, cells were incubated with YOYO in phenol-free medium. After half an hour, cells were centrifuged to get rid of YOYO solution and resuspended in fresh phenol-free medium before doing flow cytometry.
# Endocytosis inhibitors treatment. U87 Cells were incubated with different endocytosis inhibitors for 1 h respectively. Afterwards, old medium was replaced with medium containing 500 nM RB-EPP 6. After 1 h, a trypsin-EDTA solution (0.05%, Sigma) was added to detach the cells. The cells were collected by centrifugation. Fresh phenol-free medium was added to each condition. Once resuspended, cells were filtered into glass tubes before flow cytometry.
# [2] = target: T1, FIBCD1 (Homo sapiens, UniProt Q8N539); experiment: FIBCD1 competition assay; format: cell-based; conditions: U87 cells, 500 nM RB-EPP6, flow cytometry
# T1 construct: endogenous in cells; host or cells: U87 human glioblastoma cells
# T1 sequence (Q8N539 1-461): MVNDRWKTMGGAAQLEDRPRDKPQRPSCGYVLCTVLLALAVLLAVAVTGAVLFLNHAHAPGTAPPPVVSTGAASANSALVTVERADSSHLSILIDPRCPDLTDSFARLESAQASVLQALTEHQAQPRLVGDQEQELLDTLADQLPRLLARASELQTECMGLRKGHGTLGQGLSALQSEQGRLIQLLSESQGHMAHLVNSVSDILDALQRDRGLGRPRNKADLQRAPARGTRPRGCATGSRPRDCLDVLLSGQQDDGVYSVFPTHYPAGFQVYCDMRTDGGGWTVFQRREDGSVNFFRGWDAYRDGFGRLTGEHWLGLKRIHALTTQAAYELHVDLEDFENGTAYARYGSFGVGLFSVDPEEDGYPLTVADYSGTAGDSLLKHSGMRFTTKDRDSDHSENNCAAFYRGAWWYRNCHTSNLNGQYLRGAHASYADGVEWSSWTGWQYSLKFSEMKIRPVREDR
# Method: as §1
# FIBCD1 competition assay. U87 cells were incubated with 500 nM RB-EPP 6 and YOYO, together with FIBCD1 ligands, sodium acetate (SA) at 3.1 mM (1×) and acetylmannosamine (AMA) at 1.6 mM (1×) respectively. After 1 h, trypsin was added to detach the cells. Cell pallets were collected by centrifugation. Fresh phenol-free medium was added to each condition. Once resuspended, cells were filtered into glass tubes before flow cytometry.
# [3] = test system: U87 cells; experiment: Confocal imaging of Dye-EPP uptake in U87 cells; format: cell-based, human; conditions: for ability to enter the cells (intracellular fluorescence): RB-tagged EPPs, ranking among EPP1-7
# Method: Confocal Imaging experiments. To image the cells, a Zeiss 880 inverted confocal laser scanning microscope (Carl Zeiss, Germany) was used. Image acquisition and analyses were carried out using the manufacturer's software (ZEN, Carl Zeiss). Quantification of fluorescence intensity in single cells was performed using Fiji software.
# Dye-EPP incubation. For general incubation, 300 k U87 cells were seeded in full medium containing 10% FBS and 1% PS in a 35×10 mm petri dish. The cells were incubated overnight in full medium. Stock solution of Dye-EPPs were made in DMSO to reach a concentration of 500 μM. Fresh cell culture medium was used to dilute the stock solution to 500 nM and replace the old medium on day 2. Cells were incubated with RB-EPPs for different time periods, followed by a one-time wash with phenol-free fresh culture medium before measurements.
# Concentration gradient experiment. U87 Cells were incubated with RB-EPP 6 at different concentrations (20 nM, 200 nM, 2 μM, 20 μM, 50 μM and 100 μM). After wash with fresh medium once cells were examined by confocal imaging.
# [4] = Octanol-water partition assay; format: physicochemical
# Method: Octanol-water partition assay. For each RB-EPP, pre-mix 250 μl of octanol with 250 μl of water in a 1.5 ml centrifuge tube. 2 μl of RB-EPP was added to the solution at the concentration of 500 μM. After vortex the mixture, centrifuge at the highest speed for 10 min to separate the octanol and water phases. Samples were collected from both phases and quantified by the Analytical HPLC separately.
# [5] = a
# Excerpt: Table printed on a drawing sheet, FIGURES 7A-7B
# The patent's description of the figure: FIGS. 7A-7B. (FIG. 7a) PAMPA assay results of EPPs.
# First reader's note: Panel a of the sheet; per the description these are PAMPA permeability results, and panel b is a bar graph of the same values.
# [6] = test system: different cell lines; experiment: RB-EPP6 uptake in different cell lines (confocal imaging); format: cell-based
# Excerpt: Cell lines and cell culture. The human glioblastoma cell line (U87) was gifted from Prof. Wei Wei (Institute For Systems Biology, Seattle). The human monocytic leukemia cell line (THP-1) and the human T-cell leukemia cell line (Jurkat) were purchased from ATCC. The human embryonic kidney cell line (HEK-293T), the human osteosarcoma cell line (U2OS), the human breast cancer cell line (MCF-7), the human metastatic melanoma cell lines (IGR-37, IGR-39, WM266-4 and WM115), the human cervical carcinoma cell line (HeLa), and the human myelogenous leukemia cell line (K562) were gifted from Prof. Yinsheng Wang (UC Riverside). The non-tumorigenic epithelial cell line (MCF 10A) and the human breast adenocarcinoma cell line (MDA-MB-231) were gifted from Prof. Wenwan Zhong (UC Riverside). The canine epithelial kidney cell line (MDCK) and the African green monkey kidney cell line (Vero) were gifted from Prof. Hai Rong (UC Riverside). The human colon carcinoma cell line (HCT116) was gifted from Prof. Xuan Liu (UC Riverside). The human liver carcinoma cell line (HEPG2), the rat liver cell line (MCA7777) and the mouse sarcoma cell line (J774A.1) were gifted from Prof. Joseph Genereux (UC Riverside).
# Confocal Imaging experiments. […] Quantification of fluorescence intensity in single cells was performed using Fiji software. […]
# [7] = test system: U87 cells; experiment: Heparin binding assay, RB-EPP6 uptake by flow cytometry; format: cell-based, human; conditions: heparin 10-200 μg/ml
# Method: as §1, with “cytometry. Heparin binding assay. […] A trypsin-EDTA solution (0.05%, Sigma) was added to detach the cells. The cells were collected by centrifugation. Fresh phenol-free medium was added to each condition. Once resuspended, cells were filtered into glass tubes before flow cytometry.” for “cytometry.”
compound,measurement,setting,value
O=C(N/N=C/c1ccc(O)c(O)c1)c1cc2ccccc2cc1O [Dynasore],effect of inhibitor on RB-EPP6 uptake,[1],almost completely suppressed
O=C1NC(=NS(=O)(=O)c2cccc3ccccc23)S/C1=C\c1ccc(Br)cc1 [Pitstop 2],effect of inhibitor on RB-EPP6 uptake,[1],did not affect the uptake
CC(=O)NC1C(O)OC(CO)C(O)C1O (stereo not drawn) [acetylmannosamine],effect of FIBCD1 ligand on RB-EPP6 uptake,[2],inhibit RB-EPP6 uptake in a concentration-dependent manner
C=C1[C@@H](C)[C@H]2[C@H](Cc3ccccc3)NC(=O)[C@]23[C@H](OC(C)=O)/C=C/[C@@](C)(O)C(=O)[C@@H](C)C/C=C/[C@H]3[C@@H]1O [cytochalasin D],effect of inhibitor on RB-EPP6 uptake,[1],significantly decreased
CCCCC[C@@H](O)[C@H]1C(=O)O[C@H](C)[C@@H](O)/C=C/C=C/C=C/C=C/C=C(\C)[C@@H](O)C[C@H](O)C[C@H](O)C[C@H](O)C[C@H](O)C[C@H](O)C[C@@H]1O [filipin],effect of inhibitor on RB-EPP6 uptake,[1],did not inhibit
c1ccc2c(c1)Nc1ccccc1S2 [phenothazine],effect of inhibitor on RB-EPP6 uptake,[1],did not affect the uptake
RB-cy(YTYYT) [RB-EPP3],ability to enter the cells (intracellular fluorescence),"[3]; U87 cells, confocal imaging",worst
same,hydrophobicity (octanol partitioning),[4],most hydrophobic
c[Pra-Ser-Tyr-Tyr-Ser-Tyr-Az4] ([Pra]SYYSY[Lys(N3)]; triazole N-C) [EPP7],Pe,[5],0.63243 ×10⁻⁶ cm/s
c[Pra-Thr-Tyr-Tyr-Thr-Tyr-Az4] ([Pra]TYYTY[Lys(N3)]; triazole N-C) [EPP2],Pe,[5],0.46872 ×10⁻⁶ cm/s
c[Pra-Tyr-Ser-Tyr-Tyr-Ser-Az4] ([Pra]YSYYS[Lys(N3)]; triazole N-C) [EPP6] [listing 1 of 2 here],Pe,[5],0.234 ×10⁻⁶ cm/s
c[Pra-Tyr-Ser-Tyr-Tyr-Ser-Az4] ([Pra]YSYYS[Lys(N3)]; triazole N-C) [EPP6] [listing 2 of 2 here],delivery of different fluorescent dye cargo molecules,"[3]; EPP6 conjugated to different dyes incl. AF555 and AF647, U87 cells",could bring all these cargo molecules into U87 cells
same,fluorescence intensity in the cells compared with TAT peptide,"[3]; RB tag, U87 cells, confocal imaging",~2 ×
same,ability to enter the cells (intracellular fluorescence),"[3]; U87 cells, confocal imaging",highest efficiency
same,concentration-dependent uptake (fluorescence signal),"[3]; U87 cells, 20 nM to 100 μM",higher fluorescence signals across a wide range
same,uptake in different cell lines,[6],"able to enter a wide array of human cancer and noncancer cells, as well as non-human cells"
c[Pra-Tyr-Thr-Tyr-Tyr-Thr-Az4] ([Pra]YTYYT[Lys(N3)]; triazole N-C) [EPP3],Pe,[5],0.11206 ×10⁻⁶ cm/s
cy(TTTTT) [EPP5],Pe,[5],1.8954 ×10⁻⁶ cm/s
cy(YYTYT) [EPP1],Pe,[5],0.16201 ×10⁻⁶ cm/s
heparin,effect of heparin on RB-EPP6 uptake,[7],did not affect; also recorded: no inhibitory effect
methyl-β-cyclodextrin,effect of inhibitor on RB-EPP6 uptake,[1],did not inhibit
